Results as given in ChEMBL document CHEMBL4017467, “Generation of tricyclic imidazo[1,2-a]pyrazines as novel PI3K inhibitors by application of a conformational restriction strategy” (Bioorg Med Chem Lett, 2017).

Columns and labels:
[1] = in vitro; conditions: human, liver microsomes
[2] = in vitro; conditions: rat, liver microsomes

remaining at 0.25 h, 1 µM [1]: 93% | remaining at 0.25 h, 1 µM [2]: 99%
Structure (SMILES): CS(=O)(=O)N1CCN(Cc2cn3cc(-c4cnc(N)nc4)nc(N4CCOCC4)c3n2)CC1
